In patent publication US10167262B2, “Herbicidal substituted 3-arylpyrazoles” (FMC CORPORATION, priority 2014, dated 2019):

What was measured:
Format in all cases: in vivo
[1] = system: barnyardgrass (Echinochloa crus-galli); test: Test A pre-/postemergence greenhouse herbicide test, visual injury rating 0-100
How it was run: (§1)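 Each species was treated both before emergence, via soil spray onto a loam–sand blend, and after emergence at the one- to two-leaf stage. Plants stayed in the greenhouse around 10 days before visual injury assessment.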

corn (Zea mays) = test: as above
How it was run: as §1

[2] = system: giant foxtail (Setaria faberii); test: as above
How it was run: as §1

[3] = system: large (Lg) crabgrass (Digitaria sanguinalis); test: as above
How it was run: as §1

[4] = system: morningglory (Ipomoea spp.); test: as above
How it was run: as §1

[5] = system: pigweed (Amaranthus retroflexus); test: as above
How it was run: as §1

[6] = system: velvetleaf (Abutilon theophrasti); test: as above
How it was run: as §1

[7] = system: wheat (Triticum aestivum); test: as above
How it was run: as §1

[8] = system: barnyardgrass (Echinochloa crus-galli); test: Test B flooded paddy test, plant response rating 0-100; settings: Flood, 250 g ai/ha; scale 0 to 100 (0 no effect, 100 complete control); 13 to 15 days
How it was run: (§2)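 In-water treatment: compound dosed into 3 cm flood over soil, water level unchanged throughout. Controls run alongside; visual assessment at day 13–15.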

[9] = system: ducksalad (Heteranthera limosa); test: as above; settings: Flood, 250 g ai/ha; scale 0 to 100 (0 no effect, 100 complete control); 13 to 15 days
How it was run: as §2

rice (Oryza sativa) = test: as above; settings: Flood, 250 g ai/ha; scale 0 to 100 (0 no effect, 100 complete control); 13 to 15 days
How it was run: as §2

[10] = system: sedge, umbrella (small-flower umbrella sedge, Cyperus difformis); test: as above; settings: Flood, 250 g ai/ha; scale 0 to 100 (0 no effect, 100 complete control); 13 to 15 days
How it was run: as §2

CC(=O)Cn1cc(C(=O)c2ccccc2)c(-c2cc(Cl)cc(Cl)c2)n1 [Compound 45]
Plant response rating (0 to 100 scale), Barnyardgrass ([1]; Postemergence, 125 g ai/ha): 0
Plant response rating (0 to 100 scale), Barnyardgrass ([1]; Postemergence, 500 g ai/ha): 0
Barnyardgrass plant response rating (0 = no effect, 100 = complete control) ([1]; Preemergence, 125 g ai/ha): 0
Plant response rating (0 to 100 scale), Barnyardgrass ([1]; Preemergence, 500 g ai/ha): 0
Plant response rating (0 to 100 scale), Corn (corn (Zea mays); Postemergence, 125 g ai/ha): 0
Plant response rating (0 to 100 scale), Corn (corn (Zea mays); Postemergence, 500 g ai/ha): 0
Corn plant response rating (0 = no effect, 100 = complete control) (corn (Zea mays); Preemergence, 125 g ai/ha): 0
Plant response rating (0 to 100 scale), Corn (corn (Zea mays); Preemergence, 500 g ai/ha): 0
Plant response rating (0 to 100 scale), Foxtail, Giant ([2]; Postemergence, 125 g ai/ha): 0
Plant response rating (0 to 100 scale), Foxtail, Giant ([2]; Postemergence, 500 g ai/ha): 0
Foxtail, Giant plant response rating (0 = no effect, 100 = complete control) ([2]; Preemergence, 125 g ai/ha): 0
Plant response rating (0 to 100 scale), Foxtail, Giant ([2]; Preemergence, 500 g ai/ha): 0
Plant response rating (0 to 100 scale), Crabgrass, Large ([3]; Postemergence, 125 g ai/ha): 0
Plant response rating (0 to 100 scale), Crabgrass, Large ([3]; Postemergence, 500 g ai/ha): 0
Crabgrass, Large plant response rating (0 = no effect, 100 = complete control) ([3]; Preemergence, 125 g ai/ha): 0
Plant response rating (0 to 100 scale), Crabgrass, Large ([3]; Preemergence, 500 g ai/ha): 0
Morningglory plant response rating (0 = no effect, 100 = complete control) ([4]; Preemergence, 125 g ai/ha): 0
Plant response rating (0 to 100 scale), Morningglory ([4]; Preemergence, 500 g ai/ha): 0
Plant response rating (0 to 100 scale), Pigweed ([5]; Postemergence, 125 g ai/ha): 40
Plant response rating (0 to 100 scale), Pigweed ([5]; Postemergence, 500 g ai/ha): 60
Pigweed plant response rating (0 = no effect, 100 = complete control) ([5]; Preemergence, 125 g ai/ha): 0
Plant response rating (0 to 100 scale), Pigweed ([5]; Preemergence, 500 g ai/ha): 70
Plant response rating (0 to 100 scale), Velvetleaf ([6]; Postemergence, 125 g ai/ha): 60
Plant response rating (0 to 100 scale), Velvetleaf ([6]; Postemergence, 500 g ai/ha): 80
Velvetleaf plant response rating (0 = no effect, 100 = complete control) ([6]; Preemergence, 125 g ai/ha): 20
Plant response rating (0 to 100 scale), Velvetleaf ([6]; Preemergence, 500 g ai/ha): 30
Plant response rating (0 to 100 scale), Wheat ([7]; Postemergence, 125 g ai/ha): 0
Plant response rating (0 to 100 scale), Wheat ([7]; Postemergence, 500 g ai/ha): 0
Wheat plant response rating (0 = no effect, 100 = complete control) ([7]; Preemergence, 125 g ai/ha): 0
Plant response rating (0 to 100 scale), Wheat ([7]; Preemergence, 500 g ai/ha): 0
Plant response rating, Barnyardgrass [8]: 0
Plant response rating, Ducksalad [9]: 0
Plant response rating, Rice (rice (Oryza sativa)): 0
Plant response rating, Sedge, Umbrella [10]: 0

CCn1cc(C(=O)c2ccccc2)c(-c2cc(F)cc(C(F)(F)F)c2)n1 [Compound 48]
Plant response rating (0 to 100 scale), Barnyardgrass ([1]; Postemergence, 1000 g ai/ha): 20
Plant response rating (0 to 100 scale), Barnyardgrass ([1]; Preemergence, 1000 g ai/ha): 0
Plant response rating (0 to 100 scale), Corn (corn (Zea mays); Postemergence, 1000 g ai/ha): 0
Plant response rating (0 to 100 scale), Corn (corn (Zea mays); Preemergence, 1000 g ai/ha): 0
Plant response rating (0 to 100 scale), Foxtail, Giant ([2]; Postemergence, 1000 g ai/ha): 20
Plant response rating (0 to 100 scale), Foxtail, Giant ([2]; Preemergence, 1000 g ai/ha): 0
Plant response rating (0 to 100 scale), Crabgrass, Large ([3]; Postemergence, 1000 g ai/ha): 20
Plant response rating (0 to 100 scale), Crabgrass, Large ([3]; Preemergence, 1000 g ai/ha): 0
Plant response rating (0 to 100 scale), Morningglory ([4]; Postemergence, 1000 g ai/ha): 20
Plant response rating (0 to 100 scale), Morningglory ([4]; Preemergence, 1000 g ai/ha): 0
Plant response rating (0 to 100 scale), Pigweed ([5]; Postemergence, 1000 g ai/ha): 90
Plant response rating (0 to 100 scale), Pigweed ([5]; Preemergence, 1000 g ai/ha): 100
Plant response rating (0 to 100 scale), Velvetleaf ([6]; Postemergence, 1000 g ai/ha): 90
Plant response rating (0 to 100 scale), Velvetleaf ([6]; Preemergence, 1000 g ai/ha): 80
Plant response rating (0 to 100 scale), Wheat ([7]; Postemergence, 1000 g ai/ha): 0
Plant response rating (0 to 100 scale), Wheat ([7]; Preemergence, 1000 g ai/ha): 0
Plant response rating, Barnyardgrass [8]: 0
Plant response rating, Ducksalad [9]: 0
Plant response rating, Rice (rice (Oryza sativa)): 0
Plant response rating, Sedge, Umbrella [10]: 0

Clc1cc(Cl)cc(-c2n[nH]cc2C(=NN2CCOCC2)c2ccccc2)c1 [Compound 55]
Plant response rating (0 to 100 scale), Barnyardgrass ([1]; Postemergence, 1000 g ai/ha): 0
Plant response rating (0 to 100 scale), Barnyardgrass ([1]; Preemergence, 1000 g ai/ha): 0
Plant response rating (0 to 100 scale), Corn (corn (Zea mays); Postemergence, 1000 g ai/ha): 0
Plant response rating (0 to 100 scale), Corn (corn (Zea mays); Preemergence, 1000 g ai/ha): 0
Plant response rating (0 to 100 scale), Foxtail, Giant ([2]; Postemergence, 1000 g ai/ha): 0
Plant response rating (0 to 100 scale), Foxtail, Giant ([2]; Preemergence, 1000 g ai/ha): 0
Plant response rating (0 to 100 scale), Crabgrass, Large ([3]; Postemergence, 1000 g ai/ha): 0
Plant response rating (0 to 100 scale), Crabgrass, Large ([3]; Preemergence, 1000 g ai/ha): 0
Plant response rating (0 to 100 scale), Morningglory ([4]; Postemergence, 1000 g ai/ha): 0
Plant response rating (0 to 100 scale), Morningglory ([4]; Preemergence, 1000 g ai/ha): 0
Plant response rating (0 to 100 scale), Pigweed ([5]; Postemergence, 1000 g ai/ha): 100
Plant response rating (0 to 100 scale), Pigweed ([5]; Preemergence, 1000 g ai/ha): 90
Plant response rating (0 to 100 scale), Velvetleaf ([6]; Postemergence, 1000 g ai/ha): 100
Plant response rating (0 to 100 scale), Velvetleaf ([6]; Preemergence, 1000 g ai/ha): 80
Plant response rating (0 to 100 scale), Wheat ([7]; Postemergence, 1000 g ai/ha): 0
Plant response rating (0 to 100 scale), Wheat ([7]; Preemergence, 1000 g ai/ha): 0
Plant response rating, Barnyardgrass [8]: 0
Plant response rating, Ducksalad [9]: 0
Plant response rating, Rice (rice (Oryza sativa)): 0
Plant response rating, Sedge, Umbrella [10]: 0

Clc1cccc(NN=C(c2ccccc2)c2c[nH]nc2-c2cc(Cl)cc(Cl)c2)c1 [Compound 56]
Plant response rating (0 to 100 scale), Barnyardgrass ([1]; Postemergence, 1000 g ai/ha): 0
Plant response rating (0 to 100 scale), Barnyardgrass ([1]; Preemergence, 1000 g ai/ha): 0
Plant response rating (0 to 100 scale), Corn (corn (Zea mays); Postemergence, 1000 g ai/ha): 0
Plant response rating (0 to 100 scale), Corn (corn (Zea mays); Preemergence, 1000 g ai/ha): 0
Plant response rating (0 to 100 scale), Foxtail, Giant ([2]; Postemergence, 1000 g ai/ha): 0
Plant response rating (0 to 100 scale), Foxtail, Giant ([2]; Preemergence, 1000 g ai/ha): 0
Plant response rating (0 to 100 scale), Crabgrass, Large ([3]; Postemergence, 1000 g ai/ha): 0
Plant response rating (0 to 100 scale), Crabgrass, Large ([3]; Preemergence, 1000 g ai/ha): 0
Plant response rating (0 to 100 scale), Morningglory ([4]; Postemergence, 1000 g ai/ha): 0
Plant response rating (0 to 100 scale), Morningglory ([4]; Preemergence, 1000 g ai/ha): 0
Plant response rating (0 to 100 scale), Pigweed ([5]; Postemergence, 1000 g ai/ha): 90
Plant response rating (0 to 100 scale), Pigweed ([5]; Preemergence, 1000 g ai/ha): 100
Plant response rating (0 to 100 scale), Velvetleaf ([6]; Postemergence, 1000 g ai/ha): 90
Plant response rating (0 to 100 scale), Velvetleaf ([6]; Preemergence, 1000 g ai/ha): 90
Plant response rating (0 to 100 scale), Wheat ([7]; Postemergence, 1000 g ai/ha): 0
Plant response rating (0 to 100 scale), Wheat ([7]; Preemergence, 1000 g ai/ha): 0
Plant response rating, Barnyardgrass [8]: 0
Plant response rating, Ducksalad [9]: 0
Plant response rating, Rice (rice (Oryza sativa)): 0
Plant response rating, Sedge, Umbrella [10]: 0
